The subject of one assay is HeLa (NA). The assay can be described thus: SRB proliferation assay, HeLa (non-amplified). The assay is classed as cell-based. The note with it: Homo sapiens, 120 h, 5-day incubation, not amplified (NA). The text has this:
(§1) All cell lines were obtained from ATCC except KPL1 which was obtained from Leibniz Institute DSMZ-German Collection of Microorganisms and Cell Cultures, and SMOV2 which was obtained from Dr. Hiroaki Itamochi (Tottori University School of Medicine, Yonago, Japan; see also: ‘Establishment and characterization of human ovarian clear cell adenocarcinoma cell line (SMOV-2), and its cytotoxity by anticancer agents’, Yonamine K at al., Hum Cell., 1999, 12(3), 139-48; and ‘PPM1D Is a Potential Therapeutic Target in Ovarian Clear Cell Carcinoma’, David S. P. Tan et al., Clin Cancer Res, 2009, 15, 2269).
(§2) Representative compounds were assessed in a sulforhodamine B (SRB) proliferation assay in the cell lines shown in the Tables below, according to the following general procedure:
(§3) Cells were seeded in a 96 well plate at a number optimized for each cell line as known in the art; for example as described in Viachai et al, Nature Protocols, 2006, 1 1112-1116. Two fold dilutions of the compounds to be tested were made in culture medium so that, when diluted 5×, the final concentration in the wells was from 50 μM to 0.000191 μM (19 concentrations). […] Optical density was measured at wave length of 490 nm using a plate reader and analysis performed to measure the GI50 using GraphPad PRISM.

The subject of a further assay is MDAMB231 (NA). The assay is described as follows: SRB proliferation assay, MDAMB231 (non-amplified). The note with it: Homo sapiens, MDA-MB-231, 120 h; 5-day incubation; MDAMB231, not amplified (NA). The class given is cell-based.
Source text: as §1, §2, §3

A further assay deals with KPL1 (A). The assay is described as follows: SRB proliferation assay, KPL1 (amplified). The assay is classed as cell-based. The following applies: KPL-1, 120 h, 5-day incubation.
Source text: as §1, §2, §3

The next assay has as its system TOV21G (NA). The assay can be described thus: SRB proliferation assay, TOV21G (non-amplified control). The assay is classed as cell-based. The following applies: Homo sapiens, 120 h, 5-day incubation, control not amplified (NA).
Source text: as §1, §2
(§4) Cells were seeded in a 96 well plate at a number optimized for each cell line as known in the art; for example as described in Viachai et al, Nature Protocols, 2006, 1 1112-1116. Two fold dilutions of the compounds to be tested were made in culture medium so that, when diluted 5×, the final concentration in the wells was from 50 μM to 0.000191 μM (19 concentrations). A day after seeding the cells in 96 well plates, 25 μl of the compound diluted in the culture medium was added to 100 μl of the cells and incubated at 37° C. and 5% CO2 for 3 or 5 more days as required. After this time, cells were fixed by adding 10% ice cold TCA (in H2O) to 3% final concentration in the wells and by incubating at 4° C. for at least 2 h. Plates were washed 4 times in H2O and allowed to dry in the air. Added 100 μl of 0.057% SRB solution to the dried plates and incubated at room temperature for at least 30 min. Removed SRB solution from the plates and washed four times with 1% acetic acid. Plates were left overnight to dry in the air followed by addition of 100 μl of 10 mM Tris pH 10.5 to each well of the dried plates and incubation on a shaker for 5 min to solubilize the SRB. Optical density was measured at wave length of 490 nm using a plate reader and analysis performed to measure the GI50 using GraphPad PRISM.

The test system of a further assay is MCF7 (A). The assay can be described thus: SRB proliferation assay, MCF7 (amplified). The class given is cell-based. The following applies: MCF7a, 120 h, 5-day incubation.
Source text: as §1, §2, §3

Another assay concerns SMOV2 (A). The assay is described as follows: SRB proliferation assay, SMOV2 (PPM1D amplified). The assay is classed as cell-based. The following applies: Homo sapiens, SMOV2, PP1MD amplified cell line (A).
Source text: as §1, §2, §4
(In general: The SRB assay estimates cell density from bound dye.)

Another assay deals with Cama1 (NA). The assay is described as follows: SRB proliferation assay, Cama1 (non-amplified). The assay is classed as cell-based. The following applies: Homo sapiens, CAMA-1, 120 h; 5-day incubation; Cama1, not amplified (NA).
Source text: as §1, §2, §3

For assay [1], the system named is Phospho-p38, Phospho-p53 S15, cleaved PARP in SMOV2 cells. The assay is described as follows: Western blot analysis of biomarker modulation in SMOV2 cells. The assay is classed as cell-based, human. The note with it: 24 hours treatment, FIG. 1. On the procedure:
FIG. 1 provides an image showing the results of a Western Blot (LDS-PAGE gel) for cleaved PARP, Phospho-p53 S15, Phospho-p38, and GAPDG, confirming modulation of the biomarkers expected for PP1 MD-mediated inhibition in SMOV2 cells as described in Example 2.
Biomarker modulation by representative compounds was assessed by Western blot analysis in SMOV2 cells using the following procedure:
On day one, 3×10^5 cells were plated per well in a 6 well plate. Next day cells were treated with DMSO control or indicated concentrations of the representative compounds for 24 hours. Treated cells were lysed in complete lysis buffer (50 mM NaCl, 20 mM Tris pH7.5, 1 mM EDTA, 1 mM EGTA, 1% Triton X100, 10 mM NaF, protease Inhibitor tablet and phosphatase inhibitor cocktails) on ice for 10 min. Soluble proteins were separated by centrifugation, and protein concentration was measured using Bradford assay. Samples with equal amount of proteins were prepared and run on LDS-PAGE. Separated proteins were transferred to the nitrocellulose membrane and probed with the Phospho-p38, Phospho-p53 S15, cleaved PARP, γ-H2AX and GAPDH antibodies.
A general note: Immunoblotting shows a protein as a band on a membrane.

Setting [2] is: 72 h, 3-day incubation, read-out: GI50 3-day SMOV2 (A) SRB.
Setting [3] is: 120 h, 5-day incubation, read-out: GI50 5-day SMOV2 (A) SRB.

Where two headings read alike, the source gives them in different places.

Take `COCCOCc1cc(F)ccc1-c1nc(-c2ccc3[nH]c(=O)[nH]c3c2)cs1` [Compound 32, 5-(2-(4-fluoro-2-((2-methoxyethoxy)methyl)phenyl)thiazol-4-yl)-1H-benzo[d]imidazol-2(3H)-one]: the GI50 (as a rule, the concentration giving 50% growth inhibition) is 5600 nM with HeLa (NA); > 10000 nM with MDAMB231 (NA); 36 nM in the assay on KPL1 (A); > 10000 nM in the assay on TOV21G (NA); 4.6 nM with MCF7 (A); 4.8 nM in the assay on SMOV2 (A) (setting [2]). Moreover, the figures for the GI50 in the assay on SMOV2 (A) (setting [3]) and in the assay with Cama1 (NA) were 1.6 nM and 3900 nM, respectively. Also, the “biomarker modulation (Western blot: cleaved PARP, Phospho-p53 S15, Phospho-p38)” value in assay [1] was “modulation of the biomarkers expected for PP1MD-mediated inhibition”.
`COCCOCc1cc(F)ccc1-c1nc(-c2ccc3[nH]c(=O)oc3c2)cs1` [Compound 17, 6-(2-(4-fluoro-2-((2-methoxyethoxy)methyl)phenyl)thiazol-4-yl)benzo[d]oxazol-2(3H)-one]: the GI50 with TOV21G (NA) came to 9400 nM; in the assay with SMOV2 (A) (setting [2]) it was 1.2 nM; with SMOV2 (A) (setting [3]) it was 0.1 nM.
For the compound `O=c1[nH]c2ccc(-c3csc(-c4ccc(F)cc4CF)n3)cc2o1` [Compound 12, 6-(2-(4-fluoro-2-(fluoromethyl)phenyl)thiazol-4-yl)benzo[d]oxazol-2(3H)-one], the GI50 in the assay on TOV21G (NA) stood at 5200 nM; with SMOV2 (A) (setting [2]), 2 nM; in the assay on SMOV2 (A) (setting [3]), 0.3 nM.

Values taken from US9550764B2, “Fused heterocyclic compounds and their use” (The Institute of Cancer Research: Royal Cancer Hospital, priority 2012, dated 2017).
